# Starred links: 1 amine or outer side, 2 acyl side, 3 side chain; linkers in the order of their positions; H or OH if unused. Non-standard residues stand in square brackets, D forms with d. Residues, ends and D or L forms follow the SMILES beside them. No end group written: not given here. X1 = C[C@H](N[*:1])C(=O)n1c(=O)n(C)c2ccc(C(=O)[*:2])cc21
# Columns and labels:
# [1] = UHPLC elution as indicator of hydrophilicity; format: physicochemical; settings: standard UHPLC conditions, 214 nm; with versus without SynTag
# [2] = once synthesized; cited from earlier work
# Source text: Amyloid-β is a biologically relevant peptide that is investigated for its role in Alzheimer’s disease (Figure 5D). The peptide is notoriously difficult to synthesize because it severely aggregates at the very beginning of the synthesis (i.e., residues 27–42).
Compound,hydrophilicity by UHPLC elution / peak shape (in words) [1],solubility (in words) [2]
CC[C@H](C)[C@H](NC(=O)[C@H](C)NC(=O)CNC(=O)[C@@H](N)CCCCN)C(=O)N[C@H](C(=O)NCC(=O)N[C@@H](CC(C)C)C(=O)N[C@@H](CCSC)C(=O)N[C@H](C(=O)NCC(=O)NCC(=O)N[C@H](C(=O)N[C@H](C(=O)N[C@H](C(=O)N[C@@H](C)C(=O)n1c(=O)n(C)c2ccc(C(=O)N[C@@H](CCCNC(=N)N)C(=O)N[C@@H](CCCNC(=N)N)C(=O)N[C@@H](CCCNC(=N)N)C(=O)N[C@@H](CCCNC(=N)N)C(=O)N[C@@H](CCCNC(=N)N)C(=O)N[C@@H](CCCNC(=N)N)C(N)=O)cc21)[C@@H](C)CC)C(C)C)C(C)C)C(C)C)[C@@H](C)CC [Aβ42[27–42]-SynTag] (H-KGAIIGLMVGGVVI[X1]RRRRRR-NH2),increased hydrophilicity,
Amyloid-β: biologically relevant peptide investigated for its role in Alzheimer’s disease,,barely soluble
KGAIIGLMVGGVVIA-NH2 [Aβ42[27–42]],elutes later than Aβ42[27–42]-MeNbz-Arg6,
